In patent US8614339B2, “Dimeric derivatives of artemisinin and application in anti-cancer therapy” (Pierre Fabre Medicament, priority 2008, dated 2013):

Key:
[1] = test system: A549 cell line (lung); assay: Cytotoxic activity: inhibition of cell proliferation, ATPLite luminescence of residual ATP after 72 hours; assay type: cell-based; conditions: A549 human lung tumour cell line, 72 hours of incubation, read-out: IC50 (expressed in nM) A549
Procedure: (§1) The cytotoxic activity of the compounds of the invention was evaluated by measuring inhibition of cell proliferation of human tumour cell lines, such as the A549 cell line (lung) and the Namalwa cell line (lymphoma). This activity is expressed by IC50, the concentration of the product tested able to inhibit cell proliferation by 50%. The method employed is measurement by luminescence of residual ATP after 72 hours of incubation using the ATPLite® kit sold by Perkin Elmer, as described in the following publication: “Measurement of cytotoxicity by ATP-based luminescence assay in primary cell cultures and cell lines.” I. A. Cree, P. E. Andreotti, Toxicology in Vitro, 11, 553-6, (1997).
(§2) As an example, the cytotoxic properties of a few of the compounds of the invention evaluated on A549 and Namalwa cell lines are presented in the following table: […]

[2] = test system: Namalwa cell line (lymphoma); assay: as above; assay type: cell-based; conditions: Namalwa human lymphoma cell line, 72 hours of incubation, read-out: IC50 (expressed in nM) Namalwa
Procedure: as §1, §2

Row | Compound | IC50 [1] | IC50 [2]
1 | C[C@@H]1CC[C@H]2C(COCCCO[C@@]3(C(F)(F)F)O[C@@H]4OC5(C)CCC6[C@H](C)CC[C@@H]([C@H]3C)[C@]64OO5)=C(C(F)(F)F)O[C@@H]3OC4(C)CCC1[C@]32OO4 (stereo partly drawn) [Compound 1] | 5.2 nM | 6.8 nM
2 | C[C@@H]1CC[C@H]2C(COCCO[C@@]3(C(F)(F)F)O[C@@H]4OC5(C)CCC6[C@H](C)CC[C@@H]([C@H]3C)[C@]64OO5)=C(C(F)(F)F)O[C@@H]3OC4(C)CCC1[C@]32OO4 (stereo partly drawn) [Compound 2] | 25 nM | 27 nM
3 | C[C@@H]1CC[C@H]2C(COCCCCO[C@@]3(C(F)(F)F)O[C@@H]4OC5(C)CCC6[C@H](C)CC[C@@H]([C@H]3C)[C@]64OO5)=C(C(F)(F)F)O[C@@H]3OC4(C)CCC1[C@]32OO4 (stereo partly drawn) [Compound 3] | 6.7 nM | 5.5 nM
4 | C[C@@H]1CC[C@H]2C(COCc3cccc(CO[C@@]4(C(F)(F)F)O[C@@H]5OC6(C)CCC7[C@H](C)CC[C@@H]([C@H]4C)[C@]75OO6)n3)=C(C(F)(F)F)O[C@@H]3OC4(C)CCC1[C@]32OO4 (stereo partly drawn) [Compound 4] | 27 nM | 19 nM
5 | C[C@@H]1CC[C@H]2C(Cn3nncc3CO[C@@]3(C(F)(F)F)O[C@@H]4OC5(C)CCC6[C@H](C)CC[C@@H]([C@H]3C)[C@]64OO5)=C(C(F)(F)F)O[C@@H]3OC4(C)CCC1[C@]32OO4 (stereo partly drawn) [Compound 7] | 45 nM | 30 nM
6 | C[C@@H]1CC[C@H]2C(COC/C=C/CO[C@@]3(C(F)(F)F)O[C@@H]4OC5(C)CCC6[C@H](C)CC[C@@H]([C@H]3C)[C@]64OO5)=C(C(F)(F)F)O[C@@H]3O[C@@]4(C)CCC1[C@]32OO4 (stereo partly drawn) [Compound 8] | 27 nM | 13 nM
7 | C[C@@H]1CC[C@H]2C(CNCCO[C@@]3(C(F)(F)F)O[C@@H]4OC5(C)CCC6[C@H](C)CC[C@@H]([C@H]3C)[C@]64OO5)=C(C(F)(F)F)O[C@@H]3O[C@@]4(C)CCC1[C@]32OO4 (stereo partly drawn) [Compound 10] | 27 nM | 19 nM
8 | C[C@@H]1CC[C@H]2[C@@H](C)[C@](OCCCCCOCC3=C(C(F)(F)F)O[C@@H]4O[C@@]5(C)CC[C@H]6[C@H](C)CC[C@@H]3[C@@]46OO5)(C(F)(F)F)O[C@@H]3O[C@@]4(C)CC[C@@H]1[C@]32OO4 [Compound 16] | 19 nM | 42 nM
9 | C[C@@H]1CC[C@H]2[C@@H](C)[C@](OCCCCCN(C)CC3=C(C(F)(F)F)O[C@@H]4O[C@@]5(C)CC[C@H]6[C@H](C)CC[C@@H]3[C@@]46OO5)(C(F)(F)F)O[C@@H]3O[C@@]4(C)CC[C@@H]1[C@]32OO4 [Compound 22] | 46 nM | 83 nM
